Experimental data published in patent US11161850B2, “Fused pyrazine derivatives as A2A / A2B inhibitors” (Incyte Corporation, priority 2018, dated 2021).

Key:
[1] = biological target: human adenosine A2B receptor (Homo sapiens (Human), UniProt P29275); test: Adenosine A2B Receptor Cyclic AMP GS Assay; type: cell-based; conditions: A2B_cAMP_EC50 (nM), HEK-293 cells expressing human A2B, agonist NECA 12 nM
Summary of the method: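 Stably transfected HEK-293 cells were preincubated with compound for 30 min at room temperature, then stimulated with 12 nM NECA for 60 min. cAMP accumulation was read by FRET (665/620 ratio), and EC50 was fitted from percent of control versus log compound concentration.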

Adenosine A2A = Adenosine A2A (Homo sapiens (Human), UniProt P29274); test: A2A Tag-Lite HTRF assay; type: binding; conditions: Tag-Lite Adenosine A2A labeled cells, fluorescent ligand 12.5 nM; read-out: A2A_Ki
Sequence of Adenosine A2A (P29274 whole entry): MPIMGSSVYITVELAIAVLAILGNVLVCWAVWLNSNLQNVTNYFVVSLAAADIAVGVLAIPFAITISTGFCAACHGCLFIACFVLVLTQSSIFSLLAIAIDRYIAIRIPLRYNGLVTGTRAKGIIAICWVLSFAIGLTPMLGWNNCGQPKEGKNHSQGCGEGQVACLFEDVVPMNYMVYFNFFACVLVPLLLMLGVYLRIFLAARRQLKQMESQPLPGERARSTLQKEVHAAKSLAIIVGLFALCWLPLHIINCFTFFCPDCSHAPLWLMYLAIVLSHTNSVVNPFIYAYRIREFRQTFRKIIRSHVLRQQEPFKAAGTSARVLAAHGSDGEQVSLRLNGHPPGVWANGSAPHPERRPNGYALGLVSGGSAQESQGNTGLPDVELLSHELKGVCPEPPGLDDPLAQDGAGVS
Source text: Example C. A2A Tag-Lite® HTRF Assay

Sequence of human adenosine A2B receptor (P29275 whole entry): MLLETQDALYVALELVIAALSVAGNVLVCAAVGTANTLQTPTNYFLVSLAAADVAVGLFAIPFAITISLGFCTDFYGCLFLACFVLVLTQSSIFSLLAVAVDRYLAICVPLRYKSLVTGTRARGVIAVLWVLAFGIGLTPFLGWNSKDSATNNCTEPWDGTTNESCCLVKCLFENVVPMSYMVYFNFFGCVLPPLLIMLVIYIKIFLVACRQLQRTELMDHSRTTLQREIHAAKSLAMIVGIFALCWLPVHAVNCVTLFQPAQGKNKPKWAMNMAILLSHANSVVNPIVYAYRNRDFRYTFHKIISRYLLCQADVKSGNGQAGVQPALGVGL

Question: What does the source list for `N#Cc1cccc(-c2nc(N)c3nc(Cn4ncc5ccccc54)nn3c2-c2ccncn2)c1` [Example 48, 3-(2-((1H-Indazol-1-yl)methyl)-8-amino-5-(pyrimidin-4-yl)-[1,2,4]triazolo[1,5-a]pyrazin-6-yl)benzonitrile]?
Answer: EC50 [1]: 10 to 100 nM; Ki (Adenosine A2A): < 10 nM

Question: Which EC50 [1] does the source give for `N#Cc1cccc(-c2nc(N)c3nc(C(O)c4ccccc4)nn3c2-c2ccncn2)c1` (stereo not shown) [Example 59, 3-(8-Amino-2-(hydroxy(phenyl)methyl)-5-(pyrimidin-4-yl)-[1,2,4]triazolo[1,5-a]pyrazin-6-yl)benzonitrile] here?
Answer: The EC50 was 10 to 100 nM.

Question: What about the Ki (Adenosine A2A) of the same compound?
Answer: The Ki was under 10 nM.

Question: Which EC50 [1] does the source give for `N#Cc1cccc(-c2nc(N)c3nc(S(=O)(=O)c4ccccc4)nn3c2-c2ccncn2)c1` [Example 60, 3-(8-Amino-2-(phenylsulfonyl)-5-(pyrimidin-4-yl)-[1,2,4]triazolo[1,5-a]pyrazin-6-yl)benzonitrile] here?
Answer: The EC50 was 10 to 100 nM.

Question: And the Ki (Adenosine A2A)?
Answer: The Ki was under 10 nM.

Question: Which EC50 [1] does the source give for `Cc1ncoc1-c1c(-c2cccc(C#N)c2)nc(N)c2nc(C(=O)N3CCC3)nn12` [Example 61, 3-(8-Amino-2-(azetidine-1-carbonyl)-5-(4-methyloxazol-5-yl)-[1,2,4]triazolo[1,5-a]pyrazin-6-yl)benzonitrile] here?
Answer: The EC50 was under 10 nM.

Question: What about the Ki (Adenosine A2A) of the same compound?
Answer: Its Ki is under 10 nM.

Question: For `N#Cc1cccc(-c2nc(N)c3nc(Cc4ccccn4)nn3c2-c2ccc(O)nc2)c1` [Example 62, 3-(8-amino-5-(6-hydroxypyridin-3-yl)-2-(pyridin-2-ylmethyl)-[1,2,4]triazolo[1,5-a]pyrazin-6-yl)benzonitrile], which EC50 [1] is on record?
Answer: Its EC50 is under 10 nM.

Question: What about the Ki (Adenosine A2A) of the same compound?
Answer: The Ki was under 10 nM.

Question: Which EC50 [1] does the source give for `N#Cc1cccc(-c2nc(N)c3nc(Cc4cccc5ocnc45)nn3c2-c2ccncn2)c1` [Example 63, 3-(8-amino-2-(benzo[d]oxazol-4-ylmethyl)-5-(pyrimidin-4-yl)-[1,2,4]triazolo[1,5-a]pyrazin-6-yl)benzonitrile] here?
Answer: Its EC50 is under 10 nM.

Question: And the Ki (Adenosine A2A)?
Answer: The Ki was under 10 nM.

Question: Which EC50 [1] does the source give for `Cn1nccc1-c1cccc(F)c1Cc1nc2c(N)nc(-c3cccc(C#N)c3)c(-c3ccncn3)n2n1` [Example 64, 3-(8-amino-2-(2-fluoro-6-(1-methyl-1H-pyrazol-5-yl)benzyl)-5-(pyrimidin-4-yl)-[1,2,4]triazolo[1,5-a]pyrazin-6-yl)benzonitrile] here?
Answer: Its EC50 is under 10 nM.

Question: What about the Ki (Adenosine A2A) of the same compound?
Answer: Its Ki is under 10 nM.

Question: Which results are given for `C[C@@]1(C(=O)O)CCN(Cc2cccc(F)c2Cc2nc3c(N)nc(-c4cccc(C#N)c4)c(-c4ccncn4)n3n2)C1` [Example 65, (R)-1-(2-((8-amino-6-(3-cyanophenyl)-5-(pyrimidin-4-yl)-[1,2,4]triazolo[1,5-a]pyrazin-2-yl)methyl)-3-fluorobenzyl)-3-methylpyrrolidine-3-carboxylic Acid]?
Answer: EC50 [1]: 10 to 100 nM; Ki (Adenosine A2A): < 10 nM

Question: Which results are given for `CN1CCC2(CN(Cc3cccc(F)c3Cc3nc4c(N)nc(-c5cccc(C#N)c5)c(-c5ccncn5)n4n3)C2)C1=O` [Example 66, 3-(8-amino-2-(2-fluoro-6-((6-methyl-5-oxo-2,6-diazaspiro[3.4]octan-2-yl)methyl)benzyl)-5-(pyrimidin-4-yl)-[1,2,4]triazolo[1,5-a]pyrazin-6-yl)benzonitrile]?
Answer: EC50 [1]: < 10 nM; Ki (Adenosine A2A): < 10 nM

Question: `N#Cc1cccc(-c2nc(N)c3nc(Cc4c(F)cccc4CN4CCN5C(=O)CCC5C4)nn3c2-c2ccncn2)c1` (stereo not shown) [Example 67, 3-(8-amino-2-(2-fluoro-6-((6-oxohexahydropyrrolo[1,2-a]pyrazin-2(1H)-yl)methyl)benzyl)-5-(pyrimidin-4-yl)-[1,2,4]triazolo[1,5-a]pyrazin-6-yl)benzonitrile] was tested. Which EC50 [1] did it give?
Answer: Its EC50 is under 10 nM.

Question: And the Ki (Adenosine A2A)?
Answer: The Ki was under 10 nM.

Question: `N#Cc1cccc(-c2nc(N)c3nc(Cc4c(F)cccc4CN[C@H]4CCNC4=O)nn3c2-c2ccncn2)c1` [Example 68, (S)-3-(8-amino-2-(2-fluoro-6-(((2-oxopyrrolidin-3-yl)amino)methyl)benzyl)-5-(pyrimidin-4-yl)-[1,2,4]triazolo[1,5-a]pyrazin-6-yl)benzonitrile] was tested. Which EC50 [1] did it give?
Answer: Its EC50 is 10 to 100 nM.

Question: And the Ki (Adenosine A2A)?
Answer: The Ki was under 10 nM.
